Consider two compounds from PMC9318133 (International Journal of Molecular Sciences, 2022).

Structures are written as SMILES. Where only a bound is given, the exact number is not on record here.

A short description of data set [1]: Plasma (and brain) levels of JWH-175 and JWH-018 in mice by LC-MS/MS. It counts as in vivo, mouse. The settings on record: for presence in the brain tissue of mice systemically treated with JWH-175: data not shown. The method, then: For the in vivo studies, three different groups of mice were selected. […] Urine specimens were collected from mice individually placed inside metabolic cages (Ugo Basile SRL, Gemonio (VA), Italy) with free access to water and food. The same dose of JWH-175 was administered to the second group, and behavioral tests were performed before the blood collection. Tests and sampling were carried out, at 0, 30, 60, and 300 min, on a sub-group of six mice at each time interval. The same behavioral studies and blood sampling were performed on the third group, to which JWH-018 (10 mg/kg) was injected. Blood samples (mean total volume: 500 μL) were collected by submandibular blood collection technique into 1 mL vials containing EDTA (4 mg/mL of blood) as preservative and anticoagulant. After each blood withdrawal, an equal volume of saline solution was subcutaneously injected into mice to maintain volume and osmotic homeostasis. Plasma from collected blood and urine samples were stocked at −20 °C until the analysis.
For blood metabolic profile, samples were centrifugated at 9000× g rpm for 8 min to obtain plasma. Then, 200 µL of the supernatant was added to 500 μL of acetonitrile and centrifugated at 13,000× g rpm for 3 min. The aqueous layer was then collected and added to 50 μL of internal standard solution (10 μg/mL) and 500 μL of phosphate buffer (0.8 M, pH 7.4). Samples were then incubated for 1 h at 55 °C. After hydrolysis, samples were extracted with 5 mL of ethyl acetate. The organic solvent was then dried under nitrogen flow at 40 °C, and the dry residue was resolved in 50 μL of mobile phase and an aliquot of 10 µL was injected into the LC-MS systems.
Samples were analyzed using an Agilent 1200 series high-performance liquid chromatography (HPLC) instrument equipped with a SUPELCO C18 column (15 cm × 2.1 mm × 5 µm) coupled with a Sciex 5500QTRAP triple quadrupole mass spectrometer (Sciex, Milan, Italy) with an ESI source operated in positive ionization mode. Analyses were carried out at a constant flow rate of 250 µL/min using ultra-purified water, 0.1% formic acid (A), and acetonitrile 0.1% formic acid (B) as mobile phase. The gradient started at 5% eluent B, was increased to 65% eluent B in 7 min and after 4 min to 95% eluent B in 2 min, held for 4.5 min, decreased to starting conditions of 5% eluent B in 0.31 min, and held for 2 min for re-equilibration
Multiple reaction monitoring (MRM) was used as the acquisition mode (see Table 3). The MRM method was optimized starting from the protocol employed in our laboratory.

Another data set has as its target T1, human CB1 receptors (Homo sapiens, UniProt P21554).
T1 construct: host or cells: CHO cells
As to the kind of experiment: [3H]-CP-55,940 competition binding, CHO cell membranes transfected with human CB1 receptors. The method, then: To obtain membranes, cells were washed with phosphate-buffered saline (PBS) and scraped off with ice-cold hypotonic buffer (5 mM Tris HCl, 2 mM EDTA, pH 7.4). The cell suspension was homogenized with a Polytron and then centrifuged for 30 min at 40,000× g. The membrane pellet was suspended in 50 mM Tris HCl buffer (pH 7.4) containing 2.5 mM ethylenediaminetetraacetic acid (EDTA), 5 mM MgCl2, and 0.5 mg/mL bovine serum albumin (BSA) for CB1 receptors or in 50 mM Tris HCl (pH 7.4), 1 mM EDTA, 5 mM MgCl2, and 0.5% BSA for CB2 receptors.
For human cannabinoid receptors, membranes obtained from CHO cells transfected with human CB1 or CB2 receptors (2 µg protein/100 µL) were used. Competition binding experiments at murine cannabinoid receptors were performed with mouse brain membranes (40 µg protein/100 µL) or with mouse spleen membranes (80 µg protein/100 µL) for CB1 receptors or CB2 receptors, respectively. […] Bound and free radioactivity were separated by filtering the assay mixture through Whatman GF/C glass fiber filters using a Brandel cell harvester (Brandel Instruments, Unterföhring, Germany).
The protein concentration was determined according to a Bio-Rad method with bovine serum albumin as a reference standard. Inhibitory binding constants, Ki, were calculated from the IC50 values according to the Cheng and Prusoff equation:Ki = IC50/(1 + [C*]/KD*) where [C*] is the concentration of the radioligand and KD* its dissociation constant. Functional experiments were analyzed by non-linear regression analysis using the equation for a sigmoid concentration–response curve (GraphPad Prism, San Diego, CA, USA). All the data are expressed as the mean ± SEM of three independent experiments.

Data set [2] deals with fEPSP of CA1 area of mouse hippocampal slice. Put plainly: Electrophysiological recording of fEPSP in hippocampal slices. It is filed as cell-based. The following applies: for fEPSP slope, % changes compared to control condition: steady state. The method, then:
Procedures for tissue preparation are the same as those described by Ossato et al., 2016 [45]. In brief, after mouse decapitation, the head was immediately chilled in refrigerated artificial cerebrospinal fluid (aCSF, 0 °C) of the following composition (in mM): NaCl, 126; KCl, 2; KH2PO4, 1.25; NaHCO3, 26; MgSO4, 2.0; CaCl2, 2.5; d-glucose, 10. After 1 min, the brain was extracted to isolate the hippocampus and then placed in ice-cold artificial cerebrospinal fluid (aCSF). All solutions were saturated with 95% O2/5% CO2. Transverse hippocampal slices (425 μm thick) were cut with a tissue chopper and then placed for almost 90 min in a Haas-style incubation chamber for recovery before recording.
A single slice was transferred into a submerged-type recording chamber (3 mL total volume) and continuously superfused (3.0 mL/min) with warmed (32–33 °C) aCSF. WINLTP 2.10 computer software was used for stimulus triggering, PC recording, and analysis. Synaptic responses of CA1 pyramidal neurons were elicited by electrical stimulation of the Schaffer collateral/commissural pathway. Single stimulation pulses (80 µs duration; 0.05 Hz) were delivered by mean of a concentric bipolar electrode (o.d. 125 μm, FHC, USA) connected to a Grass S11 stimulator driving a PSIU6 constant current stimulus isolation unit. To record the fEPSPs, borosilicate glass electrodes fabricated using a microelectrode puller (P97, Sutter Instruments) and filled with aCSF (1.5 ± 0.5 MΩ), inserted in the distal third of the stratum radiatum and 200–300 µm away from stimulating electrodes, were used. The maximal fEPSPs response was reached by adjusting the recording electrode depth. Recorded potentials were amplified (Axoprobe 1A DC-coupled—Cyberamp 320, Molecular Devices, Sunnyvale, CA, USA) and filtered (5.0 kHz) prior to A/D conversion. Upon 10 min of stable synaptic response, a stimulus–response curve (SRC) was generated as previously described to extrapolate a stimulation intensity evoking 70% of maximal fEPSP, to be used throughout the experiment. […] To investigate whether the vehicle had any effect on synaptic activity, the superfusion inlet was switched to a reservoir containing aCSF plus the amount of vehicle present for the corresponding drug concentration (sham application), before switching to the solution also including the drug, for comparison. All reservoirs and tubing were on glass or Teflon to avoid the capturing of cannabinoids by plastic or silicon parts.
We analyzed data from in vitro recordings as previously described. […] Effect of treatment was considered steady state when stable +/− 5% for 10 min.

T1 sequence (P21554 whole entry): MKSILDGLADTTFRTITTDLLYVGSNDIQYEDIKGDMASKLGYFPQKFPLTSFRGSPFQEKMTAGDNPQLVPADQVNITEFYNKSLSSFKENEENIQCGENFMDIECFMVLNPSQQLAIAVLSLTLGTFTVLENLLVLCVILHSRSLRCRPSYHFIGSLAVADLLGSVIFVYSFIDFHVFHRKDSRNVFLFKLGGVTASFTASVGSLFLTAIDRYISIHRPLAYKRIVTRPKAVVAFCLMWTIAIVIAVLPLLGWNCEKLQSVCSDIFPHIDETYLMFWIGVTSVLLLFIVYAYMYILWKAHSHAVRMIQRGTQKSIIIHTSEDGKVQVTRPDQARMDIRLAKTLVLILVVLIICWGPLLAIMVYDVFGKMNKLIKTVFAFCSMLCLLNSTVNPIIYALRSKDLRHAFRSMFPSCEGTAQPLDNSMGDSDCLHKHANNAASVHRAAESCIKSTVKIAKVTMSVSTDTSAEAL

With `CCCCCn1cc(C(=O)c2cccc3ccccc23)c2ccccc21` [JWH-018, 1-naphthalenyl(1-pentyl-1H-indol-3-yl)-methanone], the “time of peak plasmatic concentration of JWH-018” value in data set [1] (JWH-018 10 mg/kg i.p., mouse plasma) is listed as 30 min. The “presence in the brain tissue of mice systemically treated with JWH-175” value in data set [1] is given as “presence”. The “selectivity index (ratio between the Ki value to human CB2 and the Ki value to human CB1)” value at human CB1 receptors (human CB2 / human CB1) is 0.9. Further, the “fold higher affinity than JWH-175 at human CB1 receptors” value on human CB1 receptors (ratio of Ki values, CHO cell membranes) is on record as 2.71 fold. Moreover, the “fEPSP slope, % changes compared to control condition” value in data set [2] (0.1 µM) is reported as −34.7 ± 7.9%; in data set [2] (0.3 µM), −40.4 ± 8.4%; in data set [2] (1 µM, last 3 min of recording), −48.8 ± 7.6%.

Consider `CCCCCn1cc(Cc2cccc3ccccc23)c2ccccc21` [JWH-175, 3-(1-naphthalenylmethyl)-1-pentyl-1H-indole], for which the “time after administration within which JWH-175 itself was detected in plasma” value in data set [1] (JWH-175 10 mg/kg i.p., mouse plasma) is recorded as no more than 30 min. The “presence in the brain tissue of mice systemically treated with JWH-175” value in data set [1] is “only traces”. The compound also gave a Ki on human CB1 receptors of 25.8 ± 1.9 nM. Also, the “fEPSP slope, % changes compared to control condition” value in data set [2] (1 µM, last 3 min of recording) is recorded as −23.7 ± 5.7%. Further, the “effect on fEPSP” value in data set [2] (0.01−0.3 µM) is on record as “failed to affect fEPSP”. Moreover, the “times less potent than JWH-018 in inhibiting fEPSP” value in data set [2] (CA1 hippocampal slices, 0.01–1 µM) is on record as “about 10 times”.
